Data set [1] relates to Lentinus sp. laccase, wild type, purified from culture. As to the kind of experiment: Laccase kinetics of purified Lentinus sp. laccase. The class given is biochemical. How it is done: All chemicals used in this study were obtained from Merck (Darmstadt, Germany) or Sigma-Aldrich (St. Louis, Mo. USA). All spectrophotometric measurements were performed using the Beckman DU 640 spectrophotometer (Beckman Coulter, USA).
Kinetic parameters Km and Vmax were determined as follows. […] The oxidation reactions of guaiacol and 2,6-DMP were monitored by determining OD436 values (ε=6,400 M^−1cm^−1) and OD468 values (ε=49,600 M^−1 cm^−1), respectively. The kinetic parameters were determined by nonlinear regression analysis (ENZFITTER software program, Elsevier-Biosoft, Cambridge, UK) using the Michaelis-Menten model.
Kinetic parameters were determined following conventional methods. See also Example 1 above.

Data set [2] deals with Trametes versicolor laccase. Conditions: ABTS as substrate, optimum 55 °C at pH 4.0, cited from earlier work.
In data set [3] the test system is Trametes C30 laccase LAC2. Particulars: ABTS as substrate, optimum 55 °C at pH 5.7, cited from earlier work.
Data set [4] has as its system Trametes pubescens laccase LAP2. Conditions: ABTS as substrate, optimum 25 °C at pH 4.0, cited from earlier work.
The next data set deals with Cerrena unicolor laccase. Conditions: ABTS as substrate; optimum 70 °C at pH 3.5; cited from earlier work.
For data set [5], the system named is Panus(Lentinus)tigrinus 8/18 laccase. Particulars: ABTS as substrate; cited from earlier work.
The test system of the next data set is Agaricus blazei laccase. Particulars: ABTS as substrate, optimum 25 °C at pH 2.3, cited from earlier work.
The subject of the next data set is Panus tigrinus laccase. Conditions: ABTS as substrate, optimum 30 °C at pH 3.5, cited from earlier work.
For data set [6], the system named is Pleurofus sajor-caju laccase. Conditions: ABTS as substrate, optimum 40 °C at pH 5.0, cited from earlier work.
The test system of data set [7] is Pycnoporus sanguineus laccase. Conditions: ABTS as substrate, optimum 25 °C at pH 3.0, cited from earlier work.
Data set [8] can be described thus: Laccase activity in culture media of recombinant P. pastoris. The class given is biochemical. Conditions: expressed in P. pastoris X-33; 13-26 day (Lcc1-3) or 18-day (LccA) cultivation. The source says:
The EasySelect™ Pichia Expression System (Invitrogen) was used in this study for expression of Lcc1, Lcc2, and Lcc3 laccases. cDNA fragments coding for these three laccases were cloned into Pichia expression vector pPICZA or pPICZaB via EcoRI and NotI restriction sites. More specifically, the lcc1 gene coding for Lcc1 precursor (including a signal peptide sequence) was cloned into pPICA to generate expression plasmid pPICZA-lcc1 and the lcc2 and lcc3 genes coding for mature Lcc2 and Lcc3 were cloned into pPICZaB to obtain expression plasmids pPICZaB-lcc2 and pPICZaB-lcc3, respectively. The three expression plasmids were introduced into P. pastoris X-33 cells following the method described in Invitrogen's protocol. Positive transformants were cultured in BMMY (1% yeast extract, 2% peptone, 100 mM potassium phosphate, pH 6.0, 1.34% yeast nitrogen base, 0.00004% biotin, and 0.5% methanol) at 25° C., 200 rpm for 12-26 days. Methanol was added to the culture media daily to reach a final concentration of 0.5%. During the cultivation, 1 ml of the supernatant was collected at various time points. The laccase activity and cell density in the supernatant were determined following the method described above or routine procedures.
pPICZ-lccA was introduced into Pichia pastoris strain X-33 host cells (Invitrogen) and positive transformants were selected for LccA expression. Briefly, a positive transformant was cultured in BMMY medium containing 1% yeast extract, 2% peptone, 1.34% yeast nitrogen base, 0.00004% biotin, and 0.5% methanol at 25° C. and 200 rpm for 20 days. Methanol was daily added to reach a final concentration of 0.5%. Within the 20-day cultivation, 1 ml of the supernatant was collected; laccase activity and cell growth were determined.

Substrate in data set [9]: CCn1c(=NN=c2sc3cc(S(=O)(=O)O)ccc3n2CC)sc2cc(S(=O)(=O)O)ccc21
As to the kind of experiment: purified protein, by the assay type. Particulars: other: ABTS as substrate, 50 mM citrate buffer, 50 °C, pH 3.0.

Substrate in data set [10]: COc1cccc(OC)c1O
As to the kind of experiment: Laccase kinetics of purified Cerrena sp. WR1 Lcc3. Particulars: other: 2,6-DMP as substrate, 50 mM citrate buffer, 70 °C, pH 3.5, pH 3.5. The format is biochemical.

Substrate in data set [11]: COc1ccccc1O
As to the kind of experiment: Laccase kinetics of purified Cerrena sp. WR1 Lcc3. The format is biochemical. Particulars: other: guaiacol as substrate, 50 mM citrate buffer, 70 °C, pH 4.5, pH 4.5.

Setting [12] is: guaiacol as substrate, optimum 70 °C at pH 5.0.
Setting [13] is: 2,6-DMP as substrate, optimum 60 °C at pH 3.5.
[14] abbreviates: ABTS as substrate, optimum 70 °C at pH 2.5.

Like-named read-outs stand apart in the source and are kept apart here.

Turning to `COc1ccccc1O` [guaiacol], in data set [1] (setting [12]), the Km amounted to 524 µM and the kcat was determined as 305.5 s⁻¹.

Turning to `COc1cccc(OC)c1O` [2,6-DMP, 2,6-dimethoxyphenol], in [1] (setting [13]), the Km is 434 µM and the kcat is 121.9 s⁻¹.

Take `CCn1c(=NN=c2sc3cc(S(=O)(=O)O)ccc3n2CC)sc2cc(S(=O)(=O)O)ccc21` [ABTS, 2,2′-azino-bis-(3-ethylbenzthiazoline-6-sulfonic acid)]: the Km is 8.4 µM in [1] (setting [14]); 37.3 µM in data set [2] (Table 2); 37.3 µM in data set [2] (Table 4); 536 µM in [3] (Table 2); 536 µM in [3] (Table 4); 43 µM in [4] (Table 2). For the same molecule, the Michaelis-Menten constant (Km) in data set [4] (Table 4) was 43 µM; in the data set with Cerrena unicolor laccase, 800 µM; in [5], 33.4 µM; with Agaricus blazei laccase (Table 2), 63 µM; in the data set on Agaricus blazei laccase (Table 4), 63 µM; in the data set with Panus tigrinus laccase (Table 2) it was 31 µM. Moreover, the Km in the data set on Panus tigrinus laccase (Table 4) is 31 µM; in data set [6] (Table 2), 56 µM; in [6] (Table 4), 56 µM; in data set [7] (Table 2), 77 µM; in data set [7] (Table 4), 77 µM. Further, the kcat in [1] (setting [14]) was 2016.5 s⁻¹; in data set [2], 351.3 s⁻¹; in data set [3], 683.33 s⁻¹; in data set [4], 350 s⁻¹; with Agaricus blazei laccase, 21 s⁻¹; with Panus tigrinus laccase, 185.69 s⁻¹. For the same molecule, the catalytic constant (kcat) in data set [6] was 520.24 s⁻¹; in [7] it was 1.155 s⁻¹.

B1: Lcc1: laccase from Cerrena sp. WR1, GenBank accession no. GQ899201; SEQ ID NO:1 mature, 7 precursor (protein)
chain: AIGPVTDLEITNGTISPDGYSRAAVLAGGSFPGPLITGNKSDNFQINVVNSLADSDMLKSTTVHWHGFFQKGTNWADGPAFVNQCPIATGNSFLYNFNATDQAGTFWYHSHLETQYCDGLRGPMVVYDPDDPHADLYDVDDDSTVITLADWYHTLARLGAAFPTSDATLINGLGRYSDGNTTDLAVITVESGKRYRFRLVSISCDPNFTFSIDNHTMTIIEADAVNYTPLDVDEIQIFAGQRYSFILTANQTVDNYWIRADPNVGTTGFDNGINSAILRYSGADEVEPTTNQTTSTNPLVEANLVPLDGAAAPGEAVAGGVDYALNLALAFDGTNLDFTVNGYEYTSPTVPVLLQILSGASSVDDLLPSGSIYSLPSNSTIELSIPALAVGAPHPIHLHGHTFSVVRSAGSTTYNYDNPPRRDVVSIGTATDDNVTIRFTTDNPGPWFLHCHIDFHLEAGFAVVFAEDFNDTASANTVTTEWSDLCTTYDALSSDDL
modifications: Cerrena sp
For B1, the “laccase activity in culture media” value in [8] is “approximately 800 U/L”.

B2: Lcc2: laccase from Cerrena sp. WR1, GenBank accession no. GQ899202; SEQ ID NO:2 mature, 8 precursor (protein)
chain: AIGPVTDLTITNATISPDGFSRQAVLAGGVFPGPLITGNKGDNFQINVVNSLENSDMLKSTTIHWHGFFQKGTNWADGPAFVNQCPIATGNSFLYNFNADDQAGTFWYHSHLSTQYCDGLRGPMVVYDPNDPHASLYDVDDESTVITLADWYHTLARLGAAFPTADATLINGLGRYSDGTTSDLAVITVESGKRYRFRLVNISCDPNYTFSIDNHTFTVIEVDGVNHAALDVDEIQIFAGQRYSFVLTANQTVDNYWIRANPNLGTTGFDNGINSAILRYSGANETEPTTTQTTATAALSEASLVPLEDPAAPGEAVAGGVDYALNLAFAFDGANLDFTVNGETYVSPTVPVLLQILSGASSVSDLLPAGSVYSLPSNSTIELSMPGGVVGGGHPLHLHGHAFSVVRSAGSDTYNYVNPPRRDVVNIGAAGDNVTIRFTTDNPGPWFLHCHIDFHLEAGFAVVFAEDFNATASSNTVTTEWSNLCTTYDALSADDQ
modifications: Cerrena sp
Regarding B2, in data set [8], the “laccase activity in culture media” value was roughly 160 U/L.

B3: Cerrena sp. WR1 laccase Lcc3, wild type (mature SEQ ID NO: 3; precursor SEQ ID NO: 9; GenBank GQ899203) (Cerrena sp. WR1) (protein)
chain: AIGPVADLHITDANVSPDGFTRPAVLAGGTFPGPLITGKQGDNFQINVIDELTDATMLKSTSIHWHGIFQKGTNWADGPSFVNQCPITTGNSFLYDFSVPDQTGTYWYHSHLSTQYCDGLRGALVIYDDNDPHKDLYDVDDETTVITLADWYHTQARLITGVPVSDATLINGLGRYLNGPTDAPLAVITVDQGKRYRFRLVSISCDPNFVFSIDNHSMTVIEVDAVNSQPLVVDSIQIFAAQRYSFILNANQSVGNYWIRANPNLGNTGFTNGINSAILRYNGAPVAEPNTTQTASTNPLNEVNLHPLVPTPVPGTPQPGGVDVVQNLVLGFSGGKFTINGVAFSPPTVPVLLQILSGTTTAQDLLPTGSIIELPLGKTVELTLAAGVLGGPHPFHLHGHTFHVVRSAGQTTPNYVDPILRDTVNTGAAGDNVTIRFTTDNPGPWFLHCHIDWHLEAGFAVVFAEGLNQTNAANPTPDAWNNLCDLYNALPAGDQ
notes: WR1 culture supernatant (Q Sepharose); precursor 516 aa with 21-residue signal peptide
Consider B3, for which, in data set [9], the Km amounted to 3.27 µM and the kcat is 934.6 s⁻¹. Moreover, in data set [10], the Km is 392.7 µM, the kcat was determined as 109 s⁻¹ and the specificity constant (kcat/Km) stood at 280000 M⁻¹ s⁻¹. In data set [11], the Michaelis constant (Km) worked out at 849.1 µM and the kcat came out at 148 s⁻¹.

B4: LccA: laccase from Lentinus sp., GenBank accession no. FJ693715; SEQ ID NO:4 mature, 10 precursor (protein)
chain: GIGPIASLVVTDAQISPDGYLRDAIVTNGVFPAPLITGRKGDHFQLNVVDSMTNHTMLKSTSIHWHGFFQKGTNWADGPAFVNQCPISSGHSFLYDFHVPDQAGTFWYHSHLSTQYCDGLRGPMVVYDPNDPHANLYDIDNDSTVITLADWYHVAAKLGPRFPLGADATLINGKGRSPATPTAALSVINVVKGKRYRFRLVSISCDPNYVFSIDNHTMTVIEADTVNTQPLAVDSIQIFAAQRYSFILNANQPVDNYWIRANPNFGNVGFTDGINSAILRYTGAALVEPSATTAPTLSNPLVETNLHPLAPMPVPGQPVSGGVDKAINFAFNFDGTDFFINGASFVPPTVPVLLQIMSGASTAQDLLPSGSVYPLPSNATIELSFPATAAAPGAPHPFHLHGHVFAVVRSAGSTTYNYNNPIWRDVVSTGTPAAGDNVTIRFSTNNPGPWFLHCHIDFHLEAGFAVVMAEDVPDIPSANPVPQAWSNLCPTYNALSSDDQ
modifications: Lentinus sp
Regarding B4, the “laccase activity in culture media” value in data set [8] was “about 400 U/L”.

Broadly, the Km is the concentration of substrate that gives half-maximal velocity. Usually kcat stands for the maximal rate divided by the concentration of active sites. As a reminder, the kcat/Km is the second-order rate constant that governs catalysis at low substrate concentration.

The record behind these values is patent US8728787B2, “Fungal laccases and uses thereof” (Academia Sinica, priority 2010, dated 2014).
